The text below walks through data of patent publication US20260078114A1, “COMPOUND USED AS INHIBITOR OF CDK4 KINASE AND USE THEREOF” (TYK MEDICINES, INC., priority 2022, published 2026).

The subject of experiment [1] is ovarian cancer cell A2780. As to the kind of experiment: Cellular antiproliferative assay (MTT, 5 days), A2780. The class given is cell-based, human. The settings on record: Homo sapiens, 120 h, A2780 cells, 5 days incubation. As to the method:
(§1) Human breast cancer cell MCF-7, ovarian cancer cell A2780, human mantle cell lymphoma cell JEKO-1. DMEM medium (Bio-Channel), DMSO (dimethyl sulfoxide), MTT (thiazolyl blue), 0.25% EDTA-Tripsin (tryptic digest), 1×PBS (phosphate buffer, PH7.2), 96-well plate (Corning), fetal bovine serum (FBS), 10,000 U/mL penicillin-G/streptomycin, high-speed cryo-centrifuge (EPPENDORF 5810R), enzyme-linked immunoassay (Tecan Spark).
(§2) • A) Tumor cells were cultured in DMEM (high sugar with 10% FBS and 100 U/mL penicillin-G/streptomycin) at 37° C., 5% CO2 and saturated humidity until 80-90% dense. • B) Removed the culture medium from 10 cm Petri dishes; • C) Rinsed the cells once with 10 ml 1×PBS; • D) Added 4 ml 0.25% EDTA-Tripsin into 37° C., 5% CO2 incubator for trypsin digestion for 5 minutes, transferred to 15 ml centrifuge tube, centrifuged at 200 g for 5 minutes, discarded the supernatant to get cell precipitate; • E) Resuspended with 4 ml DMEM medium, counted and adjust to 50,000 cells/ml. • F) Added cell suspension to 96-well plate with 100 μL per well volume and incubated overnight at 37° C., 5% CO2 incubator.
(§3) • A) Preparation of gradient dilution solution of the tested compound: the test compound was configured into 1 mM reservoir solution.
(§4) • A) Taking the cell culture plate and adding 10 μL of 5 mg/ml MTT in the biosafety cabinet; • B) Putting the cell culture plate back into the incubator and continued incubation for 3 hours; • C) Taking the cell culture plate and removing the culture medium, adding 100 μL isopropanol (containing 0.4 mM HCl, 0.1% NP-40), and shaking the bed at room temperature for 30 min; and • D) Determining the absorbance value by selecting 570 nm on a TECAN enzyme-linked immunoassay detector.
(§5) The % Cell Viability was calculated using the following formula:
(§6) [formula] • Lum_HC: 0.1% DMSO control cell reading • Lum_Sample: cell readings with compound added • Lum_LC: Blank medium reading

Experiment [2] concerns Human breast cancer cell MCF-7. As to the kind of experiment: Cellular antiproliferative assay (MTT, 5 days), MCF-7. The format is cell-based. The settings on record: Homo sapiens, MCF7, 120 h, MCF-7 cells, 5 days incubation. As to the method: as §1, §2, §3, §4, §5, §6
The test system of experiment [3] is human mantle cell lymphoma cell JEKO-1. The experiment in a line: Cellular antiproliferative assay (MTT, 5 days), JEKO-1. The format is cell-based. The settings on record: Homo sapiens, 120 h, JEKO-1 cells, 5 days incubation. How it is done: as §1, §2, §3, §4, §5, §6

In the case of `CN1CCn2c1nc1c(F)cc(-c3nc(N[C@@H]4CCOC[C@H]4O)ncc3Cl)cc12` [TB-45, (3S,4R)-4-((5-chloro-4-(8-fluoro-1-methyl-2,3-dihydro-1H-benzo[d]imidazo[1,2-a]imidazol-6-yl)pyrimidin-2-yl)amino)tetrahydro-2H-pyran-3-ol], the IC50 in experiment [1], in experiment [2] and in experiment [3] was at most 0.5 µM in each case.

As for `CN1C(=O)CCn2c1nc1c(F)cc(-c3nc(N[C@@H]4CCOC[C@H]4O)ncc3Cl)cc12` [TB-46, 7-(5-chloro-2-(((3S,4R)-3-hydroxytetrahydro-2H-pyran-4-yl)amino)pyrimidin-4-yl)-9-fluoro-1-methyl-3,4-dihydrobenzo[4,5]imidazo[1,2-a]pyrimidin-2(1H)-one], the half-inhibitory concentration (IC50) in experiment [1], in experiment [2] and in experiment [3] was at most 0.5 µM throughout.

Take `CC1CCN(C)c2nc3c(F)cc(-c4nc(NC5CCN(S(C)(=O)=O)CC5)ncc4Cl)cc3n21` (stereo not drawn) [TB-51, 5-chloro-4-(9-fluoro-1,4-dimethyl-1,2,3,4-tetrahydrobenzo[4,5]imidazo[1,2-a]pyrimidin-7-yl)-N-(1-(methylsulfonyl)piperidin-4-yl)pyrimidin-2-amine]: the concentration for half-maximal inhibition (IC50) in experiment [1], in experiment [2] and in experiment [3] was at most 0.5 µM each time.

Consider `CN1CCn2c1nc1c(F)cc(-c3nc(NC4CCN(S(C)(=O)=O)CC4)ncc3Cl)cc12` [TB-52, 5-chloro-4-(8-fluoro-1-methyl-2,3-dihydro-1H-benzo[d]imidazo[1,2-a]imidazol-6-yl)-N-(1-(methylsulfonyl)piperidin-4-yl)pyrimidin-2-amine], for which the IC50 in experiment [1], in experiment [2] and in experiment [3] was at most 0.5 µM throughout.

With `CNS(=O)(=O)c1ccc(Nc2ncc(Cl)c(-c3cc(F)c4nc5n(c4c3)C(C)CCN5C)n2)cc1` (stereo not drawn) [TB-53, 4-((5-chloro-4-(9-fluoro-1,4-dimethyl-1,2,3,4-tetrahydrobenzo[4,5]imidazo[1,2-a]pyrimidin-7-yl)pyrimidin-2-yl)amino)-N-methylbenzenesulfonamide], the IC50 in experiment [1], in experiment [2] and in experiment [3] was at most 0.5 µM throughout.

As to `CC(C)n1c(N2CCOC2=O)nc2c(F)cc(-c3nc(Nc4ccc(S(=O)(=O)NCCN(C)C)cc4)nc4[nH]cnc34)cc21` [TB-70], the IC50 in experiment [1], in experiment [2] and in experiment [3] was at most 0.5 µM each time.

With `CN1CCCn2c1nc1c(F)cc(-c3nc(Nc4ccncc4)ncc3Cl)cc12` [TB-90], the IC50 – broadly, the point on the concentration scale where inhibition reaches its midpoint – was at most 0.5 µM in experiment [1], 0.5 to 2 µM in experiment [2] and at most 0.5 µM in experiment [3].

As for `C[C@@H]1CCN(C)c2nc3c(F)cc(-c4nc(N[C@@H]5CCOC[C@H]5O)ncc4Cl)cc3n21` [TB-91, (3S,4R)-4-((5-chloro-4-((R)-9-fluoro-1,4-dimethyl-1,2,3,4-tetrahydrobenzo[4,5]imidazo[1,2-a]pyrimidin-7-yl)pyrimidin-2-yl)amino)tetrahydro-2H-pyran-3-ol], the concentration for half-maximal inhibition (IC50) in experiment [1], in experiment [2] and in experiment [3] was at most 0.5 µM in each case.

With `COCc1cc(Nc2ncc(Cl)c(-c3cc(F)c4nc5n(c4c3)CCCN5C)n2)ccn1` [TB-130, 5-chloro-4-(9-fluoro-1-methyl-1,2,3,4-tetrahydrobenzo[4,5]imidazo[1,2-a]pyrimidin-7-yl)-N-(2-(methoxymethyl)pyridin-4-yl)pyrimidin-2-amine], the IC50 in experiment [1], in experiment [2] and in experiment [3] was at most 0.5 µM each time.

Consider `CN1CCCn2c1nc1c(F)cc(-c3nc(NC4CCOCC4)ncc3Cl)cc12` [TB-132, 5-chloro-4-(9-fluoro-1-methyl-1,2,3,4-tetrahydrobenzo[4,5]imidazo[1,2-a]pyrimidin-7-yl)-N-(tetrahydro-2H-pyran-4-yl)pyrimidin-2-amine], for which the concentration for half-maximal inhibition (IC50) was at most 0.5 µM in experiment [1], 0.5 to 2 µM in experiment [2] and at most 0.5 µM in experiment [3].
